Assay results published in PubChem BioAssay AID256 (DTP/NCI, 2004).
Toxic doses and inconclusive results are not listed. The calls were made as follows: active = survival T/C of 150% or more; inactive = T/C below 125% in these data.

System: CD2F1 mice, L1210 leukemia ip, survival T/C
Assay: NCI In Vivo Anticancer Drug Screen. Data for tumor model L1210 Leukemia (intraperitoneal) in CD2F1 (CDF1) mice
Conditions: higher = longer survival
In short: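 Compound-dosed mice with transplantable tumor versus matched vehicle controls; endpoint ratio T/C reported.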

[1] = endpoint: mean survival time, dose: 100.0 mg/kg/injection, schedule: Q01DX009 (ip), vehicle: saline with Tween-80
[2] = endpoint: mean survival time, dose: 100.0 mg/kg/injection, schedule: Q04DX003 (ip), vehicle: saline with Tween-80
[3] = endpoint: mean survival time, dose: 200.0 mg/kg/injection, schedule: Q01DX009 (ip), vehicle: saline with Tween-80
[4] = endpoint: mean survival time, dose: 200.0 mg/kg/injection, schedule: Q04DX003 (ip), vehicle: saline with Tween-80
[5] = endpoint: mean survival time, dose: 400.0 mg/kg/injection, schedule: Q01DX009 (ip), vehicle: saline with Tween-80
[6] = endpoint: mean survival time, dose: 400.0 mg/kg/injection, schedule: Q04DX003 (ip), vehicle: saline with Tween-80
[7] = endpoint: mean survival time, dose: 100.0 mg/kg/injection, schedule: Q04DX003 (ip), vehicle: saline
[8] = endpoint: mean survival time, dose: 200.0 mg/kg/injection, schedule: Q04DX003 (ip), vehicle: saline
[9] = endpoint: mean survival time, dose: 100.0 mg/kg/injection, schedule: Q01DX001 (ip), vehicle: saline with Tween-80
[10] = endpoint: mean survival time, dose: 200.0 mg/kg/injection, schedule: Q01DX001 (ip), vehicle: saline with Tween-80
[11] = endpoint: mean survival time, dose: 400.0 mg/kg/injection, schedule: Q01DX001 (ip), vehicle: saline with Tween-80
[12] = endpoint: mean survival time, dose: 100.0 mg/kg/injection, schedule: Q04DX002 (ip), vehicle: saline with Tween-80
[13] = endpoint: mean survival time, dose: 200.0 mg/kg/injection, schedule: Q04DX002 (ip), vehicle: saline with Tween-80
[14] = endpoint: mean survival time, dose: 400.0 mg/kg/injection, schedule: Q04DX002 (ip), vehicle: saline with Tween-80
[15] = endpoint: mean survival time, dose: 100.0 mg/kg/injection, schedule: Q01DX009 (ip), vehicle: Klucel (hydroxypropylcellulose) (HPC)
[16] = endpoint: mean survival time, dose: 200.0 mg/kg/injection, schedule: Q01DX009 (ip), vehicle: Klucel (hydroxypropylcellulose) (HPC)
[17] = endpoint: mean survival time, dose: 12.5 mg/kg/injection, schedule: Q04DX002 (ip), vehicle: saline with Tween-80
[18] = endpoint: mean survival time, dose: 25.0 mg/kg/injection, schedule: Q04DX002 (ip), vehicle: saline with Tween-80
[19] = endpoint: mean survival time, dose: 50.0 mg/kg/injection, schedule: Q04DX002 (ip), vehicle: saline with Tween-80
[20] = endpoint: mean survival time, dose: 100.0 mg/kg/injection, schedule: Q04DX003 (ip), vehicle: Klucel (hydroxypropylcellulose) (HPC)
[21] = endpoint: mean survival time, dose: 200.0 mg/kg/injection, schedule: Q04DX003 (ip), vehicle: Klucel (hydroxypropylcellulose) (HPC)
[22] = endpoint: mean survival time, dose: 400.0 mg/kg/injection, schedule: Q04DX003 (ip), vehicle: Klucel (hydroxypropylcellulose) (HPC)

Measured: T/C

COC1=C(C)C(=O)c2c(c(COC(N)=O)c3n2CC2C3N2C)C1=O (stereo not drawn)
inactive: endpoint: mean survival time, dose: 2.25 mg/kg/injection, schedule: Q01DX001 (ip), vehicle: acetone 103 % of control | endpoint: mean survival time, dose: 2.9 mg/kg/injection, schedule: Q01DX001 (ip), vehicle: acetone 102 % of control | endpoint: mean survival time, dose: 4.5 mg/kg/injection, schedule: Q01DX001 (ip), vehicle: acetone 110 % of control | endpoint: mean survival time, dose: 6.75 mg/kg/injection, schedule: Q01DX001 (ip), vehicle: acetone 118 % of control | endpoint: mean survival time, dose: 6.75 mg/kg/injection, schedule: Q01DX001 (ip), vehicle: saline 112 % of control

C/C=C/c1ccc(OC(C)=O)c(OC)c1
inactive: [1] 100 % of control | [2] 94 % of control | [3] 94 % of control | [4] 100 % of control | [5] 105 % of control | [6] 94 % of control

NC(CSS(=O)(=O)O)=NCCSS(=O)(=O)O
inactive: [7] 97 % of control | [8] 97 % of control

CCCCCCOC(=O)C(O)c1ccccc1 (stereo not drawn)
inactive: [2] 103 % of control | [4] 103 % of control | [6] 97 % of control

C=C1N(c2cc3ccccc3o2)C(=O)OC12CCCCC2
inactive: [9] 101 % of control | [10] 98 % of control | [11] 91 % of control

CCOC(=O)c1cnc[nH]1
inactive: [12] 103 % of control | [13] 95 % of control | [14] 103 % of control

COc1cc(OC)c(NC(=O)Oc2cc(C)c(Cl)c(C)c2Cl)cc1Cl
inactive: endpoint: mean survival time, dose: 50.0 mg/kg/injection, schedule: Q01DX009 (ip), vehicle: saline with Tween-80 94 % of control | [1] 94 % of control | [3] 97 % of control

CCOC(=O)C1(C(=O)OCC)CCC(OCC)N1C(=O)c1cc2c(cc1[N+](=O)[O-])OCO2 (stereo not drawn)
inactive: endpoint: mean survival time, dose: 50.0 mg/kg/injection, schedule: Q01DX009 (ip), vehicle: Klucel (hydroxypropylcellulose) (HPC) 97 % of control | [15] 101 % of control | [16] 97 % of control

CCC(=O)NC1CCCCC1
inactive: [9] 95 % of control | [10] 101 % of control | [11] 102 % of control

C=C1CC(C)(Cn2c(N)nc3nc[nH]c3c2=O)OC1=O (stereo not drawn)
inactive: endpoint: median survival time, dose: 5.38 mg/kg/injection, schedule: Q01DX005 (ip), vehicle: water 97 % of control | endpoint: median survival time, dose: 10.75 mg/kg/injection, schedule: Q01DX005 (ip), vehicle: water 97 % of control | endpoint: median survival time, dose: 21.5 mg/kg/injection, schedule: Q01DX005 (ip), vehicle: water 97 % of control | endpoint: median survival time, dose: 43.0 mg/kg/injection, schedule: Q01DX005 (ip), vehicle: water 112 % of control

O=C1CC(=O)C(Br)=C1Br
inactive: endpoint: mean survival time, dose: 0.75 mg/kg/injection, schedule: Q01DX009 (ip), vehicle: saline with Tween-80 95 % of control | endpoint: mean survival time, dose: 1.5 mg/kg/injection, schedule: Q01DX009 (ip), vehicle: saline with Tween-80 95 % of control | endpoint: mean survival time, dose: 3.0 mg/kg/injection, schedule: Q01DX009 (ip), vehicle: saline with Tween-80 90 % of control

Cc1ccc(S(=O)(=O)NC2CCC(C(=O)O)CC2)cc1 (stereo not drawn)
inactive: [15] 103 % of control | [16] 103 % of control | endpoint: mean survival time, dose: 400.0 mg/kg/injection, schedule: Q01DX009 (ip), vehicle: Klucel (hydroxypropylcellulose) (HPC) 92 % of control

O=C(O)/C=C/C(=O)NCCCCCCNC(=O)/C=C/C(=O)O
inactive: endpoint: mean survival time, dose: 100.0 mg/kg/injection, schedule: Q01DX009 (ip), vehicle: saline 91 % of control | endpoint: mean survival time, dose: 200.0 mg/kg/injection, schedule: Q01DX009 (ip), vehicle: saline 94 % of control | endpoint: mean survival time, dose: 400.0 mg/kg/injection, schedule: Q01DX009 (ip), vehicle: saline 91 % of control

O=c1cccc(Cl)[nH]1
inactive: [1] 102 % of control | [2] 98 % of control | [3] 102 % of control | [4] 102 % of control | [5] 90 % of control | [6] 98 % of control

CC(C)CCC(=O)c1ccoc1
inactive: endpoint: median survival time, dose: 0.12 mg/kg/injection, schedule: Q03HX015 (ip), vehicle: saline with Tween-80 100 % of control | endpoint: median survival time, dose: 0.25 mg/kg/injection, schedule: Q03HX015 (ip), vehicle: saline with Tween-80 103 % of control | endpoint: median survival time, dose: 0.5 mg/kg/injection, schedule: Q03HX015 (ip), vehicle: saline with Tween-80 101 % of control | endpoint: median survival time, dose: 1.0 mg/kg/injection, schedule: Q03HX015 (ip), vehicle: saline with Tween-80 100 % of control | endpoint: median survival time, dose: 2.0 mg/kg/injection, schedule: Q03HX015 (ip), vehicle: saline with Tween-80 96 % of control

CC(C)(C)c1cc([N+](C)(C)C)cc(C(C)(C)C)n1
inactive: [17] 96 % of control | [18] 92 % of control | [19] 100 % of control

CCOc1ccc(-n2c(O)c(N=Nc3ccccc3)c(=O)n(-c3ccc(OC)cc3)c2=S)cc1
inactive: [9] 101 % of control | [10] 92 % of control | [11] 90 % of control

O=C(CCCN1CCC(O)(c2ccc(Cl)cc2)CC1)c1ccc(N2CCC(O)CC2)cc1
inactive: [12] 104 % of control | [13] 93 % of control | [14] 93 % of control

CCCCCNCCOC(=O)c1ccc(N)cc1
inactive: endpoint: mean survival time, dose: 5.0 mg/kg/injection, schedule: Q01DX001 (ip), vehicle: saline 100 % of control | endpoint: mean survival time, dose: 10.0 mg/kg/injection, schedule: Q01DX001 (ip), vehicle: saline 100 % of control | endpoint: mean survival time, dose: 20.0 mg/kg/injection, schedule: Q01DX001 (ip), vehicle: saline 94 % of control | endpoint: mean survival time, dose: 40.0 mg/kg/injection, schedule: Q01DX001 (ip), vehicle: saline 104 % of control

Cc1cc(N)ccc1N(c1c(Cl)c(Cl)c(NS(=O)(=O)c2ccccc2)c(Cl)c1Cl)S(=O)(=O)c1ccccc1
inactive: [20] 95 % of control | [21] 95 % of control | [22] 95 % of control

S
inactive: [20] 95 % of control | [21] 101 % of control | [22] 93 % of control

CC(N)CCC(C)(C)O (stereo not drawn)
inactive: [7] 92 % of control | [8] 100 % of control

CNC(=O)Cc1ccc2cc(OC)c(OC)cc2c1
inactive: [1] 100 % of control | [3] 102 % of control

COC1CCC2CC1[N+](C)(C)C2 (stereo not drawn)
inactive: endpoint: mean survival time, dose: 12.5 mg/kg/injection, schedule: Q04DX002 (ip), vehicle: saline 96 % of control | endpoint: mean survival time, dose: 25.0 mg/kg/injection, schedule: Q04DX002 (ip), vehicle: saline 101 % of control | endpoint: mean survival time, dose: 50.0 mg/kg/injection, schedule: Q04DX002 (ip), vehicle: saline 101 % of control

CSc1n[nH]c(N=[N+]=[N-])c1C(N)=O
inactive: [2] 96 % of control | [4] 93 % of control | [6] 101 % of control

N#[N+]c1c([O-])[nH]c2ccccc12
inactive: endpoint: median survival time, dose: 50.0 mg/kg/injection, schedule: Q04DX002 (ip), vehicle: saline with Tween-80 110 % of control | endpoint: median survival time, dose: 100.0 mg/kg/injection, schedule: Q04DX002 (ip), vehicle: saline with Tween-80 110 % of control | endpoint: median survival time, dose: 200.0 mg/kg/injection, schedule: Q04DX002 (ip), vehicle: saline with Tween-80 120 % of control

COc1cc([N+](=O)[O-])c(C(=O)O)c(C(=O)O)c1OC
inactive: [17] 104 % of control | [18] 96 % of control | [19] 104 % of control

CCOC(=O)C1CC(O)CN1 (stereo not drawn)
inactive: endpoint: mean survival time, dose: 100.0 mg/kg/injection, schedule: Q01DX009 (ip), vehicle: saline sonified 98 % of control | endpoint: mean survival time, dose: 200.0 mg/kg/injection, schedule: Q01DX009 (ip), vehicle: saline sonified 95 % of control | endpoint: mean survival time, dose: 400.0 mg/kg/injection, schedule: Q01DX009 (ip), vehicle: saline sonified 92 % of control
